# Laboratory results as given in publication PMC11851430, “Workflow for E3 Ligase Ligand Validation for PROTAC Development” (ACS Chemical Biology, 2025).
# Assays:
# AURKA = target: T1, AURKA (Homo sapiens, UniProt O14965); assay: cell-based; set-up: species or system HEK293T; NanoBRET tracer displacement in permeabilized cells, NanoLuc fusion protein, Tracer K10; settings: permeabilized cells; read-out: AURKA permeabilized (IC50±sd)/µM
# T1 sequence (O14965 1-403): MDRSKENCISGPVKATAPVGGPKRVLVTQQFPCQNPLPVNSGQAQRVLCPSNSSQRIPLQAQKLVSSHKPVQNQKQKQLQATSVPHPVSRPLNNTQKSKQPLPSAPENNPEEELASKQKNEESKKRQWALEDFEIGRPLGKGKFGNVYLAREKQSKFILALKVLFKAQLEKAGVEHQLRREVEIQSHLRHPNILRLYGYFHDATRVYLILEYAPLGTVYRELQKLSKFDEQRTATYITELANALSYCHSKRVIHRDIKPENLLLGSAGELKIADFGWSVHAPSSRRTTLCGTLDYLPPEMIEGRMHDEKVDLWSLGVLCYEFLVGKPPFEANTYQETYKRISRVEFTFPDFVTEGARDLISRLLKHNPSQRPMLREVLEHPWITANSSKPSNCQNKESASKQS
# [1] = target: T2, kinase protein levels in MCF-7 cells (Homo sapiens, UniProt Q9BTL3); assay: TMT-labeled quantitative proteomics; assay type: cell-based; settings: protein FAM103A1; MCF7; 1 µM; set5
# T2 construct: endogenous in cells; host or cells: MCF-7
# T2 sequence (Q9BTL3 whole entry): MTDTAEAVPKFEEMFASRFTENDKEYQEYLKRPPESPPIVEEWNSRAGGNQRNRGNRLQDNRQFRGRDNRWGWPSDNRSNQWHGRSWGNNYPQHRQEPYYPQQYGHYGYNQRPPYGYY
IC50 (AURKA) [µM],P.Value (compound/DMSO) [1],log2FC (compound/DMSO) [1],Compound
1.89 ± 0.025,–,–,Cc1ncsc1-c1ccc(CNC(=O)[C@@H]2C[C@H](O)CN2C(=O)[C@@H](NC(=O)CCOCCOCCOCCN2CCN(c3cc(Nc4cc(C5CC5)[nH]n4)nc(Nc4ccc(CC#N)cc4)n3)CC2)C(C)(C)C)cc1 [4-a^neg]
–,0.1981,-0.2114,Cc1ncsc1-c1ccc(CNC(=O)[C@@H]2C[C@@H](O)CN2C(=O)[C@@H](NC(=O)CCCCCCN2CCN(c3ccc(Nc4ncc(Cl)c(Nc5ccccc5C(N)=O)n4)cc3)CC2)C(C)(C)C)cc1 [6-d]
